The text below walks through data of publication PMC4976923, “Potent Allosteric Dengue Virus NS5 Polymerase Inhibitors: Mechanism of Action and Resistance Profiling” (PLoS Pathogens, 2016).

Each structure is given as a SMILES string.

One experiment has as its system DENV4, strain MY01-22713. Description: DENV4 infected A549 cells, high content imaging (HCI). The class given is cell-based. Particulars: 48 hr. As for the experimental part: (§1) 2 Co mpound testing with DENV dn I FAPA assays. Final dn I assa y reaction mixtures
(§2) 3 contained 100 nM DENV 5 ´UTR-L-3´UTR IVT RNA, 20 µ M ATP, 20 µM GTP, 20 µM
(§3) 4 UTP, 5 µM ATTO -CTP, and 100 nM of DENV FL NS5 protein in 15 µl in assa y buffer
(§4) 5 comprising 50 mM Tris/ HCl, pH 7.5, 10 mM KCl, 1 mM MgCl2, 0.3 mM MnCl2 (DENV2
(§5) 6 and 4) or 1 mM MnCl 2 (DENV1 and 3), 0.001% Triton- X-100 and 10 µ M cystein e [ 1] . To
(§6) 7 perform dose-respons e inhibition measurements, compounds from 0- 20 or - 100 µM
(§7) 8 concentr ations are two -fold seriall y diluted into 384-well black opaqu e plat es (Corning
(§8) 9 Costar), after which 100 nM DENV FL NS5 protein was added into resp ect ive wells. The
(§9) 10 plates wer e sealed, b riefl y shak en and centrif uged at 1500 rpm for 30 sec and incubated at RT
(§10) 11 for 15 min. Thereafter,RNA and ATTO -CTP, ATP, GTP and UTP were added to the wells to
(§11) 12 start the reactions. The pl ates wer e re-seal ed, shaken and centrifuged as before, followed b y
(§12) 13 incubation RT for 120 min. […]
(§13) 15 intestinal phosphatase (CIP), re- incubation at RT for 60 min and read on a Tecan Safire II
(§14) 16 microplate reader. […]
(§15) 8 DENV envelope protein ) and DRAQ5 (for nucl ear DNA) . Quantifications of DENV
(§16) 9 envelope protein were determined using the Opera high content imaging s ystem and anal ysis […]
(§17) 17 µM concentrations. At 48 hr of post-incubation, r enilla luciferas e activities were measured […]

In experiment [1] the target is T1, DENV4 FL NS5 (Dengue virus type 4, UniProt P09866).
T1 construct: 100 nM DENV FL NS5 protein was added; made in house
Put plainly: biochemical. Particulars: Enzyme + compound 20 min, then ssRNA and nucleotides, 2 hr; averaged from ≥3 experiments; read-out: DENV FL NS5 de novo initiation FAPA, IC50, DENV4. As for the experimental part: DENV1-4 FL NS5 dnI assays were performed as described previously. Briefly, compounds from 0–20 or -100 μM concentrations are two-fold serially diluted into 384-well black opaque plates (Corning Costar), after which 100 nM DENV FL NS5 protein was added and the plates incubated at RT for 20 min. RNA and ATTO-CTP, ATP, GTP and UTP were then added and the plates incubated for another 120 min. […] For order-of-addition experiments, DENV4 FL NS5 was incubated for one hour at RT with RNA, ATP, and GTP or RNA, ATP, GTP and ATTO-CTP, followed by exposure to serially diluted compounds for 20 min at RT. The missing components (ATTO-CTP and UTP or UTP alone) were added and the reactions continued for 120 min after which STOP buffer was added as before. All datapoints were performed in duplicate wells. Each compound was tested at least twice.
as §1, §2, §3, §4, §5, §6, §7, §8, §9, §10, §11
13 incubation RT for 120 min.
as §13
16 microplate reader. For o r der-of-addition experiments, DENV4 FL NS5 was incubated for one
17 hour at RT with RNA, ATP, and GTP or RNA, ATP, GTP and ATTO-CTP, followed by
18 exposure to seriall y dilut ed compounds for 20 mi n at RT. The missing components (ATTO-
19 CTP and UTP or UTP alone) were added and the reactions continued for 120 min after which
20 STOP buffer was added as before. All datapoints were performed in duplicate wells. Each
21 compound was tested at l east twice. […]

The test system of another experiment is DENV1, strain MY97-10245. Description: DENV1 infected A549 cells, high content imaging (HCI). It counts as cell-based. Particulars: 48 hr. Here is the method:
as §1, §2, §3, §4, §5, §6, §7, §8, §9, §10, §11, §12, §13, §14, §15, §16, §17

Experiment [2] deals with clinical isolates of DENV1-4. The following applies: across four serotypes; cited from earlier work.
The target of the next experiment is T2, DENV3 FL NS5 (Dengue virus type 3, UniProt Q6YMS4).
T2 construct: 100 nM DENV FL NS5 protein was added; made in house
Particulars: read-out: DENV FL NS5 de novo initiation FAPA, IC50, DENV3; cited from earlier work.

Experiment [3] deals with T1, DENV4 FL NS5. The class given is biochemical.

T1 sequence (P09866 2488-3387): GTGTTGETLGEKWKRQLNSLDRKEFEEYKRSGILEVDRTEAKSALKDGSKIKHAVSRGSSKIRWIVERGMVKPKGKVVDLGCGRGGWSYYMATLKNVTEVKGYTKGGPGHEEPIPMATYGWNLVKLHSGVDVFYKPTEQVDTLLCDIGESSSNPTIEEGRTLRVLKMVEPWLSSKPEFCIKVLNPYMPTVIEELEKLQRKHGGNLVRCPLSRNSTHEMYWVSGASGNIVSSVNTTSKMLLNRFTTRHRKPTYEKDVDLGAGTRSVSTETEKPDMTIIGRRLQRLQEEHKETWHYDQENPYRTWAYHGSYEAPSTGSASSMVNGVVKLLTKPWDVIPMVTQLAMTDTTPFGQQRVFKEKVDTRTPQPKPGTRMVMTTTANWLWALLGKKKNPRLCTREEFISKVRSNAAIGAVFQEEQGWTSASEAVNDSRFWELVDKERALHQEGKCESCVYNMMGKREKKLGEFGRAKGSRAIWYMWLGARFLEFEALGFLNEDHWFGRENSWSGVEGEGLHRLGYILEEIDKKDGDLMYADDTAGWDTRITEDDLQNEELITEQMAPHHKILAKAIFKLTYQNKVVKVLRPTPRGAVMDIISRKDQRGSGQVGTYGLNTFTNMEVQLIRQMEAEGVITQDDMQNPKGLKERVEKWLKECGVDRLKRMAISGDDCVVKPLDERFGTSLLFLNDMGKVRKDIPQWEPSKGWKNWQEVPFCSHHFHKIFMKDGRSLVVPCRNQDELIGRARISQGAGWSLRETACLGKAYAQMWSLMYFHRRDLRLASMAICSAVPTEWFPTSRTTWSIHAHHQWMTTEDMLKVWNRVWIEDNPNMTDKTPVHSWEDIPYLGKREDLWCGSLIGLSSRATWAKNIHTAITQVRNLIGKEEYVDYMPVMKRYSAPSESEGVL
T2 sequence (Q6YMS4 2491-3390): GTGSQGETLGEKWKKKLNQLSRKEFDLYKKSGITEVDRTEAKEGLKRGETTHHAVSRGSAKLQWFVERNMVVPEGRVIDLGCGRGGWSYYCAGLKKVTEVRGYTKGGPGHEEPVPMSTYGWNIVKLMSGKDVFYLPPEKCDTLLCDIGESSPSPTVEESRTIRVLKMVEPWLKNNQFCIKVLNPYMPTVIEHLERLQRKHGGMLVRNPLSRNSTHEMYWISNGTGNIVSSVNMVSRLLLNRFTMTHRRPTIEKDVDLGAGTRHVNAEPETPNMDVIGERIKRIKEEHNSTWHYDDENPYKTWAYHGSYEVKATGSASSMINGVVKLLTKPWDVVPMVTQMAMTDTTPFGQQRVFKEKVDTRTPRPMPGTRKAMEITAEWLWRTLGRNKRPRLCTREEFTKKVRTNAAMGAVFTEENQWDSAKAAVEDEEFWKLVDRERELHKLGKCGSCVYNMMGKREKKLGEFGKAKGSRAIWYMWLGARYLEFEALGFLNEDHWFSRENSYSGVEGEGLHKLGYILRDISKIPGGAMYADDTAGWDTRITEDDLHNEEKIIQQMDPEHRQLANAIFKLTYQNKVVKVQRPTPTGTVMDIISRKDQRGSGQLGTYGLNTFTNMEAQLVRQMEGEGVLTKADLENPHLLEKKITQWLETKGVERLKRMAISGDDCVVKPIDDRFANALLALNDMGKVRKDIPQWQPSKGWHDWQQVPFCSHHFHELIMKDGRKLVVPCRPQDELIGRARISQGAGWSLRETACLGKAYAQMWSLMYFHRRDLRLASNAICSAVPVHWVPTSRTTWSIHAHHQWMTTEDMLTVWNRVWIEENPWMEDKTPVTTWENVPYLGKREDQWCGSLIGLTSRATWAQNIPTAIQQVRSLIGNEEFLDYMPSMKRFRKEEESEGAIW

Broadly, the EC50 is the concentration needed to bring the measured effect to its halfway point. Usually IC50 stands for the concentration that inhibits the measured activity by half. For `COc1cccc(S(=O)(=O)NC(=O)c2cc(-c3ccc(C#CCO)s3)c(OC)cc2C)c1` [Compound 26i], the EC50 was 20400 nM in the experiment with DENV4, strain MY01-22713 and 15200 nM with DENV1, strain MY97-10245. Further, on DENV4 FL NS5 [1], the 50% inhibitory concentration (IC50) came out at 109 ± 61 nM.
With `COc1cccc(S(=O)(=O)NC(=O)c2cc(-c3ccc(C#CCO)s3)c(OC)cc2OC)c1` [Compound 27], the half-maximal effective concentration (EC50) in experiment [2] was around 2000 nM. Also, the concentration for half-maximal inhibition (IC50) at DENV3 FL NS5 is 48 nM.
In the case of `COc1cc(OC)c(-c2ccc(C#CCO)s2)cc1C(=O)NS(=O)(=O)c1cccc2cccnc12` [Compound 29], the “mode of inhibition with respect to viral RNA substrate” value at DENV4 FL NS5 [3] (Lineweaver-Burk plots, 0–500 nM RNA) was “uncompetitive”. The “mode of inhibition with respect to GTP” value on DENV4 FL NS5 [3] (Lineweaver-Burk plots, 0–50 μM GTP) is “uncompetitive inhibition”. Further, the “mode of inhibition at high GTP concentrations” value at DENV4 FL NS5 [3] (high GTP concentrations) is “non-competitive mode of inhibition”.
